Test results reported in patent publication US11725187B2, “Selection of human hematopoetic stem cells using EPCR” (UNIVERSITE DE MONTREAL, priority 2016, dated 2023).

Tested on: EPCR
Assay: EPCR surface expression on cultured CD34+ cells by flow cytometry
Protocol: Fresh or cultured CB cells were labelled or sorted for different HSPC phenotypes using the following antibodies. […] Cells were analyzed on a BD Canto flow cytometer, and cell sorting (under low pressure conditions) was conducted on a BD Aria II cell sorter.

Compound | increase in proportion of EPCR+ cells / EPCR expression (CB, mPB or BM CD34+ cells, 7 days, UM171 38 nM, SR1 1000 nM (FIG. 2)) | enrichment / expansion of EPCR+ population of cells (CD34+ cells (FIG. 17))
CC(C)n1cnc2c(NCCc3ccc(O)cc3)nc(-c3csc4ccccc34)nc21 [SR1] | small increase | –
Nc1cccc2c1CN(C1CCC(=O)NC1=O)C2=O (centres unmarked) [lenalidomide] | – | enriches
